The subject of assay [1] is MDA-MB-231. Briefly: Induction of autophagy in human MDA-MB-231 cells assessed as acidic vesicles at 8.4 uM over 3 days by acridine orange dye based flow cytometry. It is filed as functional, cell-based.
In assay [2] the target is T1, M-phase inducer phosphatase 1 (Homo sapiens, UniProt P30304).
T1 sequence (P30304 whole entry): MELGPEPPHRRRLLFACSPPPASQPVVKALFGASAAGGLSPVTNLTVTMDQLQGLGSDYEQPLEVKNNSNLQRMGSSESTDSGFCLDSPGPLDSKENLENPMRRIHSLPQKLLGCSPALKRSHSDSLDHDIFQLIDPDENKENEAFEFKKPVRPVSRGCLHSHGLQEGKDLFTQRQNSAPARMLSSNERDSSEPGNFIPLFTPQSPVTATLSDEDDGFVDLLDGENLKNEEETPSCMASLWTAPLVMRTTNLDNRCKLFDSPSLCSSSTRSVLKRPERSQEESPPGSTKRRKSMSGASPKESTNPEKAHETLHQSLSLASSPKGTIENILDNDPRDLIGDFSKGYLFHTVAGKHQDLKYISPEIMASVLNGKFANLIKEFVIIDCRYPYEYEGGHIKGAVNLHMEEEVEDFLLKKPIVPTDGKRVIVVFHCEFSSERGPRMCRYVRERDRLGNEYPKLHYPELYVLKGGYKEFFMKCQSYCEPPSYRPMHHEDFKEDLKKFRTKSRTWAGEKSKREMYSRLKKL
Briefly: Mixed type inhibition of human recombinant full length GST-tagged CDC25A transfected in Escherichia coli BL21-DE3 assessed as enzyme/substrate/inhibitor complex using 3-O-methylfluorescein phosphate as substrate at 5 uM incubated for 20 mins followed by substrate addition measured every 10 mins for 2 hrs by fluorimetric assay.

The subject of assay [3] is MCF7. Briefly: Cell cycle arrest in human MCF7 cells assessed as accumulation at S phase at IC50 concentration after 48 hrs by propidium iodide staining-based flow cytometry (reference value: 19.5 +/- 0.6%). The assay is classed as functional.
For assay [4], the system named is MDA-MB-231. Briefly: Cytotoxicity against human MDA-MB-231 cells assessed as inhibition of cell growth at IC50 concentration after 72 hrs by trypan blue assay. The assay is classed as functional.
The test system of assay [5] is MCF7. Briefly: Cell cycle arrest in human MCF7 cells assessed as accumulation at subG1 phase at IC50 concentration after 48 hrs by propidium iodide staining-based flow cytometry. The assay is classed as functional.
Assay [6] deals with MDA-MB-231. Briefly: Cell cycle arrest in human MDA-MB-231 cells assessed as accumulation at G2/M phase at IC50 concentration after 48 hrs by propidium iodide staining-based flow cytometry (reference value: 20.9 +/- 1.1%). The assay is classed as functional. For orientation: Flow cytometry measures light scatter and fluorescence of single cells or particles in a stream.
Assay [7] relates to MCF7. Briefly: Induction of apoptosis in human MCF7 cells assessed as nuclear fragmentation after 24 hrs by dihydro-rhodamine 123/hoechst […] staining based UV fluorescent microscopy. The assay is classed as functional, cell-based.
In assay [8] the test system is MDA-MB-231. Briefly: Cell cycle arrest in human MDA-MB-231 cells assessed as accumulation at subG1 phase at IC50 concentration after 48 hrs by propidium iodide staining-based flow cytometry. It is filed as functional.
In assay [9] the target is T1, M-phase inducer phosphatase 1. Briefly: Mixed type inhibition of human recombinant full length GST-tagged CDC25A transfected in Escherichia coli BL21-DE3 assessed as enzyme/inhibitor complex using 3-O-methylfluorescein phosphate as substrate at 5 uM incubated for 20 mins followed by substrate addition measured every 10 mins for 2 hrs by fluorimetric assay.
In assay [10] the target is T2, M-phase inducer phosphatase 1 (Homo sapiens) (UniProt P30304).
T2 sequence (whole entry): T1 sequence (P30304 whole entry)
Briefly: Reversible binding affinity to human recombinant full length GST-tagged CDC25A transfected in Escherichia coli BL21-DE3 after 1 hr by MALDI-TOF mass spectrometry.

For assay [11], the target named is T2, M-phase inducer phosphatase 1 (Homo sapiens). Briefly: Inhibition of human recombinant full length GST-tagged CDC25A transfected in Escherichia coli BL21-DE3 using 3-O-methylfluorescein phosphate as substrate at 10 uM incubated for 20 mins followed by substrate addition measured every 10 mins for 2 hrs by fluorimetric assay in presence of 0.1% BSA.
The subject of assay [12] is MCF7. Briefly: Antiproliferative activity against human MCF7 cells assessed as cell viability at IC50 concentration after 48 hrs by 2',7'-dichlorofluorescin diacetate/PI staining based flow cytometry. The assay is classed as functional.
Assay [13] concerns MDA-MB-231. Briefly: Induction of apoptosis in human MDA-MB-231 cells assessed as nuclear fragmentation after 24 hrs by dihydro-rhodamine 123/hoechst […] staining based UV fluorescent microscopy. It is filed as functional, cell-based.
The target of assay [14] is T3, M-phase inducer phosphatase 2 (Homo sapiens) (UniProt P30305).
T3 sequence (whole entry): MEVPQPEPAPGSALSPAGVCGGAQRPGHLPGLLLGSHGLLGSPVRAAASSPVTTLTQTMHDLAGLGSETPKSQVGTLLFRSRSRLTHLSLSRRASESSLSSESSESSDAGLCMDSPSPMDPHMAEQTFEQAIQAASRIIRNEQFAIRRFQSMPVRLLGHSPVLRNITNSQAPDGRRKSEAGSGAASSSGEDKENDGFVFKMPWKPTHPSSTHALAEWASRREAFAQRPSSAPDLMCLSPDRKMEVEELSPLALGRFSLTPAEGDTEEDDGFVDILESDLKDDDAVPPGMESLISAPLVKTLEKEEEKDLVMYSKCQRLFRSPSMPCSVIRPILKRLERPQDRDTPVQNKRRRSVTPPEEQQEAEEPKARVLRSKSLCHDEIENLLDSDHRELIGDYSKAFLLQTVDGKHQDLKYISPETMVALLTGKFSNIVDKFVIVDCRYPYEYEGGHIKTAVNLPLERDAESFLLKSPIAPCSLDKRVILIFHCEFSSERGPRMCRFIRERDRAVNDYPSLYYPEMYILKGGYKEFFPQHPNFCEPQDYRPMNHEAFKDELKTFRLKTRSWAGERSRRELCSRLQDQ
Briefly: Inhibition of human recombinant GST-tagged CDC25B catalytic domain transfected in Escherichia coli BL21-DE3 using 3-O-methylfluorescein phosphate as substrate at 10 uM incubated for 20 mins followed by substrate addition measured every 10 mins for 2 hrs by fluorimetric assay.

Assay [15] has as its target T1, M-phase inducer phosphatase 1. Briefly: Mixed type inhibition of human recombinant full length GST-tagged CDC25A transfected in Escherichia coli BL21-DE3 assessed as enzyme/substrate/inhibitor complex using 3-O-methylfluorescein phosphate as substrate at 20 uM incubated for 20 mins followed by substrate addition measured every 10 mins for 2 hrs by fluorimetric assay.

The subject of assay [16] is MDA-MB-231. Briefly: Cell cycle arrest in human MDA-MB-231 cells assessed as accumulation at G0/G1 phase at IC50 concentration after 48 hrs by propidium iodide staining-based flow cytometry (reference value: 57.3 +/- 0.3%). The assay is classed as functional.
The subject of assay [17] is MCF7. Briefly: Cytotoxicity against human MCF7 cells assessed as inhibition of cell growth after 72 hrs by MTT assay. The assay is classed as functional, cell-based. To be noted: MCF7, 72 h. Background: Tetrazolium dyes change colour on reduction, which living cells bring about.
Assay [18] concerns MCF7. Briefly: Cytostatic activity against human MCF7 cells at IC50 concentration. The assay is classed as functional, cell-based.
The subject of assay [19] is MDA-MB-231. Briefly: Antiproliferative activity against human MDA-MB-231 cells assessed as cell viability at IC50 concentration after 48 hrs by 2',7'-dichlorofluorescin diacetate/PI staining based flow cytometry. It is filed as functional.
Assay [20] deals with MCF7. Briefly: Cell cycle arrest in human MCF7 cells assessed as accumulation at G2/M phase at IC50 concentration after 48 hrs by propidium iodide staining-based flow cytometry (reference value: 13.8 +/- 1%). It is filed as functional.
Assay [21] has as its target T1, M-phase inducer phosphatase 1. Briefly: Mixed type inhibition of human recombinant full length GST-tagged CDC25A transfected in Escherichia coli BL21-DE3 assessed as enzyme/inhibitor complex using 3-O-methylfluorescein phosphate as substrate at 10 uM incubated for 20 mins followed by substrate addition measured every 10 mins for 2 hrs by fluorimetric assay.

The source made the active and inactive calls. The calls are words filed in the database; no cut-off is given here.

In the case of `COc1ccc(/C=C2/S/C(=N\c3nc4cc(-c5ccc(Cl)cc5)sc4s3)NC2=O)cc1`, the result with MDA-MB-231 [1], in the assay on MCF7 [5], with MCF7 [7], in the assay with MDA-MB-231 [8], with MCF7 [12] and in the assay on MDA-MB-231 [13] was inactive. For the same compound, in the assay with MDA-MB-231 [19], the outcome was inactive. Also, the Ki is 12.2 µM in assay [2], 37.1 µM in assay [9], 3.9 µM in assay [15] and 4.8 µM in assay [21]. Besides, the Activity with MCF7 [3] stood at 25.3%; in the assay on MDA-MB-231 [6], 15.9%; in the assay with MDA-MB-231 [16], 58.3%; in the assay with MCF7 [20], 15.8%. In addition, the “growth inhibition (GI)” value in the assay on MDA-MB-231 [4] was determined as 70%. Also, the result (in assay [10]; with MCF7 [18]) was Active. For the same compound, the inhibition in assay [11] worked out at 21.8%; in assay [14] it was 36.7%. Further, in the assay with MCF7 [17], the IC50 amounted to 5.1 µM.

One may read the Ki as the dissociation constant of the complex between target and ligand, obtained from inhibition or displacement. By inhibition is commonly meant the drop in the measured response relative to a control, in per cent. The IC50 is the midpoint of a concentration-inhibition curve.

(Values after ChEMBL document CHEMBL3808363, “2-(Thienothiazolylimino)-1,3-thiazolidin-4-ones inhibit cell division cycle 25 A phosphatase” (Bioorg Med Chem, 2016).)
